The values that follow come from paper PMC4618636 (Pharmacology Research & Perspectives, 2015).

The target in series [1] is T1, CYP1A2 (Homo sapiens, UniProt P05177).
T1 sequence (P05177 1-516): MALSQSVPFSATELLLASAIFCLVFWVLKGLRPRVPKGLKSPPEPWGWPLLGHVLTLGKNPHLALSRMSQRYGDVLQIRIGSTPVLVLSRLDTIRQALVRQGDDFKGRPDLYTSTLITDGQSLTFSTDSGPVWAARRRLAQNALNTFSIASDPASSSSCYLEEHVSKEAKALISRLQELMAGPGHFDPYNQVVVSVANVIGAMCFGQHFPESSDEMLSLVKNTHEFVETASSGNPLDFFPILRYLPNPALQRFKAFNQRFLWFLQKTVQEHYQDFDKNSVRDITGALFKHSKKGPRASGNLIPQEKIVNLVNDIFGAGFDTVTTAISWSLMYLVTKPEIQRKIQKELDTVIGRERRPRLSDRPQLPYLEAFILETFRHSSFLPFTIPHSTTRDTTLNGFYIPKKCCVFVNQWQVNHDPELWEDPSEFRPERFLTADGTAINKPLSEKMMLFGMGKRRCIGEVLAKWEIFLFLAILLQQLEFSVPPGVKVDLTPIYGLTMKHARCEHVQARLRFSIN
The series can be described thus: CYP1A2 inhibition in upcyte hepatocytes over 24 h. Conditions: probe phenacetin (5 μmol/L), percentage inhibition, CYP1A2, APAP, 1 mmol/L ABT, Lab 2. Format: in vitro ADME.

A further series addresses CYP2C9 (Homo sapiens, UniProt P11712). The series can be described thus: CYP2C9 inhibition in upcyte hepatocytes over 24 h. Format: in vitro ADME. Particulars: probe tolbutamide (5 μmol/L), percentage inhibition, CYP2C9, OH-Tolb, 1 mmol/L ABT, Lab 2.
Series [2] has as its target T2, CYP2B6 (Homo sapiens, UniProt P20813).
T2 sequence (P20813 1-491): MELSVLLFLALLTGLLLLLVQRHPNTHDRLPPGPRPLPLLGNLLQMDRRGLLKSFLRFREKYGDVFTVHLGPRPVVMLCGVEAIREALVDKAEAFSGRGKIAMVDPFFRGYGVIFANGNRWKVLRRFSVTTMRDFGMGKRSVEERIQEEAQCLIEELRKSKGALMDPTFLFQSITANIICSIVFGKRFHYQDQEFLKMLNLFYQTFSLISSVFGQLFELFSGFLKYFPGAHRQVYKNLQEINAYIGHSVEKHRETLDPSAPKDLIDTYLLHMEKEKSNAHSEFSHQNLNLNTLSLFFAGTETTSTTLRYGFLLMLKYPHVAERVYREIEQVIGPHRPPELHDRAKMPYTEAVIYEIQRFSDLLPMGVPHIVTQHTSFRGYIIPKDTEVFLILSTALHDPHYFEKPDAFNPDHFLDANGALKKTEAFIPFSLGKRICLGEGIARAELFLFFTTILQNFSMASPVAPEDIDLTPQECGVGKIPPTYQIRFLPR
The experiment in a line: in vitro. Conditions: hepatocytes, percentage inhibition, CYP2B6, OH-Bup, 1 mmol/L ABT, Lab 2.

Series [3] has as its target CYP3A4 (Homo sapiens, UniProt P08684). The series can be described thus: in vitro. Particulars: upcyte hepatocytes, probe midazolam (5 μmol/L), percentage inhibition, CYP3A4, 1′OH-MID +1′OH-MID-G, 1 mmol/L ABT, Lab 2.
The subject of series [4] is CYP3A4. Conditions: for CYP3A4 Indmax: mean from two experiments; for CYP3A4 % Rif: relative to positive control rifampicin, equation 2.
Series [5] relates to CYP2B6. Particulars: for CYP2B6 Indmax: mean from two experiments; for CYP2B6 % PB: relative to positive control phenobarbital, equation 2.
For series [6], the system named is CYP3A4. Conditions: in vivo induction value used for the RIS calibration; cited from earlier work.
Series [7] deals with CYP1A2. The experiment in a line: CYP1A2 preinduction by omeprazole in upcyte hepatocytes. Particulars: daily 100 μmol/L omeprazole for 3 days.

Like-named read-outs stand apart in the source and are kept apart here.

Sequence of CYP3A4 (Homo sapiens, UniProt P08684) (P08684 whole entry): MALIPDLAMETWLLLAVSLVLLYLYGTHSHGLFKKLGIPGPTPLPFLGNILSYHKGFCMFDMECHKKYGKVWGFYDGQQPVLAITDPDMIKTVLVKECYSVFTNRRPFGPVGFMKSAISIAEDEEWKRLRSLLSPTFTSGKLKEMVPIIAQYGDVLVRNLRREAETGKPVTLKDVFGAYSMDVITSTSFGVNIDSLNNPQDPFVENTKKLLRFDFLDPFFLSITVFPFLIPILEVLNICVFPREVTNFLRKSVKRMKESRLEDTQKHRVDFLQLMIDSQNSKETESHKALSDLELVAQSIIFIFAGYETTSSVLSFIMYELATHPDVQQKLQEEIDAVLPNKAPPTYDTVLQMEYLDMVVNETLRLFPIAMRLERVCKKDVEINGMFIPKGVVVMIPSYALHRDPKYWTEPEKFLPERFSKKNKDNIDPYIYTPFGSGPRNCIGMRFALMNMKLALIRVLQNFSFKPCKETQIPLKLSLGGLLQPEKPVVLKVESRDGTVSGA
Sequence of CYP2C9 (P11712 whole entry): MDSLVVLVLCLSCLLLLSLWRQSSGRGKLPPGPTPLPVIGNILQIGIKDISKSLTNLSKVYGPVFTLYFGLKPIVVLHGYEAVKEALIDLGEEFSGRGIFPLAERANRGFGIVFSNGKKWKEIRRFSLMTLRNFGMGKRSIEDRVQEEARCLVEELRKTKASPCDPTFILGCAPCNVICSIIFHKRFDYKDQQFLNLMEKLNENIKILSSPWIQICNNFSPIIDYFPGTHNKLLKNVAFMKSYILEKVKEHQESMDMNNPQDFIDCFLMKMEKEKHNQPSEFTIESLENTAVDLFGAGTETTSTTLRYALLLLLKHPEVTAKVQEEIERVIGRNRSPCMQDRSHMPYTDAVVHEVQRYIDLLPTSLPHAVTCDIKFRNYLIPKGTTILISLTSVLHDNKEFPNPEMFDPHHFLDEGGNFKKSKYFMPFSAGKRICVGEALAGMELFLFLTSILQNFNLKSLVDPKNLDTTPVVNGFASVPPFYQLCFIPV

For orientation: inhibition means the drop in the measured response relative to a control, in per cent. Low readings indicate little suppression, high ones strong suppression. Take `Nn1nnc2ccccc21` [ABT, 1-aminobenzotriazole]: the inhibition at 1 mmol/L against CYP1A2 [1] (Donor 151-03, 0–6 h) came to 100%; on CYP1A2 [1] (Donor 422A-03, 0–6 h), 100%; on CYP1A2 [1] (Donor 653-03, 0–6 h) it was 95%; on CYP2C9 (Donor 151-03, 0–6 h) it was 100%; at CYP2C9 (Donor 422A-03, 0–6 h) it was 100%; at CYP2C9 (Donor 653-03, 0–6 h), 95%. The inhibition at 1 mmol/L was 85% on CYP2B6 [2] (Donor 151-03, 0–6 h); 90% on CYP2B6 [2] (Donor 422A-03, 0–6 h); 94% against CYP2B6 [2] (Donor 653-03, 0–6 h); 99% against CYP3A4 [3] (Donor 151-03, 0–6 h); 98% against CYP3A4 [3] (Donor 422A-03, 0–6 h); 98% against CYP3A4 [3] (Donor 653-03, 0–6 h). In addition, the inhibition at 24 h, 1 mmol/L worked out at 100% at CYP1A2 [1] (Donor 151-03, 24 h); 98% against CYP1A2 [1] (Donor 422A-03, 24 h); 96% at CYP1A2 [1] (Donor 653-03, 24 h); 98% against CYP2C9 (Donor 151-03, 24 h); 100% against CYP2C9 (Donor 422A-03, 24 h); 99% at CYP2C9 (Donor 653-03, 24 h). In addition, the inhibition at 24 h, 1 mmol/L on CYP2B6 [2] (Donor 151-03, 24 h) came out at 94%; at CYP2B6 [2] (Donor 422A-03, 24 h), 94%; at CYP2B6 [2] (Donor 653-03, 24 h) it was 97%; at CYP3A4 [3] (Donor 151-03, 24 h), 97%; against CYP3A4 [3] (Donor 422A-03, 24 h), 98%; on CYP3A4 [3] (Donor 653-03, 24 h), 98%.

For `COc1ccc2[nH]c([S+]([O-])Cc3ncc(C)c(OC)c3C)nc2c1` (stereo not shown) [Omeprazole, omeprazole], the figures for the “CYP3A4 Indmax” value in the series on CYP3A4 [4] (upcyte Donor 10-03), with CYP3A4 [4] (upcyte Donor 151-03) and in the series with CYP3A4 [4] (upcyte Donor 653-03) were 2.3 fold, 3.1 fold and 1.5 fold, respectively. Besides, the “CYP3A4 % Rif” value is 4% with CYP3A4 [4] (upcyte Donor 10-03) and 34% in the series with CYP3A4 [4] (upcyte Donor 151-03). Further, the “CYP3A4 Ind50” value with CYP3A4 [4] (upcyte Donor 653-03, column headed Ind50 in Table 5) is listed as 5. In addition, the entries for the “CYP2B6 Indmax” value in the series on CYP2B6 [5] (upcyte Donor 10-03), in the series on CYP2B6 [5] (upcyte Donor 151-03) and in the series with CYP2B6 [5] (upcyte Donor 653-03) were 2.0 fold, “No induction” and 2.2 fold, respectively. In addition, the figures for the “CYP2B6 % PB” value with CYP2B6 [5] (upcyte Donor 10-03), in the series on CYP2B6 [5] (upcyte Donor 151-03) and in the series on CYP2B6 [5] (upcyte Donor 653-03) were 31%, “No induction” and 56%, respectively. In the series on CYP3A4 [6], the “% Decrease in midazolam AUC” value is 0%. Besides, the “induced CYP1A2 activity” value with CYP1A2 [7] (Donor 10-03) was found to be 57.1 ± 17.1 pmol/min/mg protein; in the series with CYP1A2 [7] (Donor 151-03), 83.8 ± 21.7 pmol/min/mg protein; with CYP1A2 [7] (Donor 422A-03) it was 205.0 ± 44.9 pmol/min/mg protein.
